Experiments:
[1] = molecular target: T1, microsomal triglyceride transfer protein (MTP) (Bos taurus, UniProt P55156); test: MTP activity, purified bovine MTP; type: biochemical; details: relatively weak potency
T1 sequence (P55156 12-887): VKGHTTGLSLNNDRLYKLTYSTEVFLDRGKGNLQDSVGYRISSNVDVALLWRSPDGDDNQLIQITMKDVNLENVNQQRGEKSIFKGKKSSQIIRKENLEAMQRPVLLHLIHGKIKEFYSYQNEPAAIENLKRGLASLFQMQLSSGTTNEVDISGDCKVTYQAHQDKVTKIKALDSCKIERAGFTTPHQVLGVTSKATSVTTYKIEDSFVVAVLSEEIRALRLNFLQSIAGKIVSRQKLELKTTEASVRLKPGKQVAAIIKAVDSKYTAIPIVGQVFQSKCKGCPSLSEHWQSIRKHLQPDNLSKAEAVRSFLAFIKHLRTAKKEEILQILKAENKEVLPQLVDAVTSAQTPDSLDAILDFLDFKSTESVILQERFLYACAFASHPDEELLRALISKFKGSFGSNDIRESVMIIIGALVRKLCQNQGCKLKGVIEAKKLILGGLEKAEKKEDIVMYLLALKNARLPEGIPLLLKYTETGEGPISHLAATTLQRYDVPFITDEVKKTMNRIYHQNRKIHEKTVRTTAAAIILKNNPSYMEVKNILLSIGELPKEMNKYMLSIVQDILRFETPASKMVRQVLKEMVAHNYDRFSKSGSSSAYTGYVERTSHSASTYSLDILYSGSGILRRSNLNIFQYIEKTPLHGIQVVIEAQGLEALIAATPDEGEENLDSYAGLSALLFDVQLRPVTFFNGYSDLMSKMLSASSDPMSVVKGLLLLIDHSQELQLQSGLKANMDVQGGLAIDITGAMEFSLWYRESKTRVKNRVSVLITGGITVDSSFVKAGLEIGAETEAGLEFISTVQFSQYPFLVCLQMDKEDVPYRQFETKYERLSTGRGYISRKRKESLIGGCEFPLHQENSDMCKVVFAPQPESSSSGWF
T1 sequence (P05307 21-510 partner): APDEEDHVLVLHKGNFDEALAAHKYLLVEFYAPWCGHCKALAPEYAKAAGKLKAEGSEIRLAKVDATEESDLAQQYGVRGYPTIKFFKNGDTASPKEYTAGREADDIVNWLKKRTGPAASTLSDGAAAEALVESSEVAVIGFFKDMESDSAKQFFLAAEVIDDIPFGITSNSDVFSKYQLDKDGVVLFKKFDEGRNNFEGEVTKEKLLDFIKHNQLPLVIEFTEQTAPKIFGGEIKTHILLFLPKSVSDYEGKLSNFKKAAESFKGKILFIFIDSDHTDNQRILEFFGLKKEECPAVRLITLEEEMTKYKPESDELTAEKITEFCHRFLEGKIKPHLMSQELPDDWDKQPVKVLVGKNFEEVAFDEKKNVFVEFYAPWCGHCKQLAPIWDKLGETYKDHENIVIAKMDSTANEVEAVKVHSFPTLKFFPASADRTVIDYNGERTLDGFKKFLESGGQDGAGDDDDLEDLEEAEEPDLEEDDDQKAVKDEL

[2] = test system: delta-6 desaturase (D6D); details: cited from earlier work
[3] = molecular target: T2, delta-6 desaturase (D6D) (Mus musculus, UniProt Q9Z0R9); details: cited from earlier work
T2 construct: host or cells: endogenous enzyme of the dosed animal
T2 sequence (Q9Z0R9 1-444): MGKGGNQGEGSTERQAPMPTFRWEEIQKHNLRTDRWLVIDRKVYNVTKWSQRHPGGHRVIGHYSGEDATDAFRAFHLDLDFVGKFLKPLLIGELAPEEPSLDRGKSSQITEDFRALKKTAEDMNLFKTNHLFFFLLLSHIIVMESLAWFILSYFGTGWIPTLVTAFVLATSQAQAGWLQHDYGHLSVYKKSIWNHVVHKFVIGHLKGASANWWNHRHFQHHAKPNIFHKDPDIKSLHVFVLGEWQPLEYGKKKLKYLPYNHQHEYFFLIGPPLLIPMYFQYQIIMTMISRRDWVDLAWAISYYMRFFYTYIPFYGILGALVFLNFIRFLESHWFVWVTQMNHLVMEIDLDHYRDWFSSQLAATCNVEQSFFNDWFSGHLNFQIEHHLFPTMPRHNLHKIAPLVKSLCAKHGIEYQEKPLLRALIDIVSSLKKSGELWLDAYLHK

[4] = test system: tissue AA/LA ratios; details: cited from earlier work
[5] = test system: ob mice; test: ob mice on high fat/sucrose Western diet; type: in vivo
Procedure: (§1) To assess the effects of D6D inhibition on structures and processes related to cardiometabolic diseases and disorders, the following experiments were conducted. Animal studies have reported evidence of increased D6D activity in rodent models of CMD (e.g., increase in AA/LA in tissue phospholipids), making them reasonable models for studying the role of D6D in its pathogenesis. To probe the effect of D6D directly, the compound SC-26196, a selective D6D inhibitor was orally administered by admixing the SC-26196 in the food mixtures of the rodent models of CMD at a dosage of about 100 mg/kg/day for four weeks. The rodent models of CMD used in these experiments included a murine model of hyperphagic obesity (leptin-deficient ob mice) and a diet-induced insulin resistance model (normal C57BI/6 mice fed a high-fat “Western” diet) for 8 weeks prior to participation in any experiments.
To assess the interaction of a high-fat Western diet with the effects of D6D inhibition, the following experiment was conducted. The ob mice and the BI/6 mice were maintained on a high fat/sucrose Western diet and part of each group was treated with SC-26196 in a similar manner as described above. The treated and untreated ob and BI/6 mice were compared. FIGS. 4A-4B summarize the results of this experiment.

[6] = Liver toxicity on chronic administration; type: in vivo; details: 100 mpk/d for 4 wks, all animal models tested
[7] = cited from earlier work
[8] = molecular target: T3, microsomal triglyceride transfer protein (MTP) (Rattus norvegicus, UniProt D4A1W8); test: MTP activity, rat liver microsomal extracts; type: biochemical; details: rat liver microsomal extracts at 100 mpk dosing in vivo; relatively weak potency
T3 construct: rat liver microsomal extracts; from tissue; host or cells: rat liver microsomal extracts
T3 sequence (D4A1W8 22-896): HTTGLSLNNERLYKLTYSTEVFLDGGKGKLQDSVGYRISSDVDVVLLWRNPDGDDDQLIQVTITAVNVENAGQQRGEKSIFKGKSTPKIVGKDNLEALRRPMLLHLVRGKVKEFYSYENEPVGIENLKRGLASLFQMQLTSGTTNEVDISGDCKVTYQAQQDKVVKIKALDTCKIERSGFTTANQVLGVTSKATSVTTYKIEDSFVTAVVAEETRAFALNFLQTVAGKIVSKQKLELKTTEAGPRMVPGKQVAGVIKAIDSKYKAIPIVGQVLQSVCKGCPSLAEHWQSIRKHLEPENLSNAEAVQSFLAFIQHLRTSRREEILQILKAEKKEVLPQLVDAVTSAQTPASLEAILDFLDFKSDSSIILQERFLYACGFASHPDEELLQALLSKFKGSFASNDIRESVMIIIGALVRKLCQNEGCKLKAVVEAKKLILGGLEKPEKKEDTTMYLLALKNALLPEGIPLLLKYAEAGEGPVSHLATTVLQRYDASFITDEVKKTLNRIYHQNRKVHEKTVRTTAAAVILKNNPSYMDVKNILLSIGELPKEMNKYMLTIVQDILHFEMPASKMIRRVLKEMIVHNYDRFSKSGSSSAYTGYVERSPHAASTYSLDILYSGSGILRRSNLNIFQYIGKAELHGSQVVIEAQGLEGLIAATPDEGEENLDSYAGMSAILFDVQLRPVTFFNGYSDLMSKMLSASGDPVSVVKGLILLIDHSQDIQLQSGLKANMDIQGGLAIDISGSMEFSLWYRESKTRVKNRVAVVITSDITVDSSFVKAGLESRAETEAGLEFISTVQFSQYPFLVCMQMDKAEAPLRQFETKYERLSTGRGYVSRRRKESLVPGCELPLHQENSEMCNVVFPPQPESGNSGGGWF
T3 sequence (P04785 20-509 partner): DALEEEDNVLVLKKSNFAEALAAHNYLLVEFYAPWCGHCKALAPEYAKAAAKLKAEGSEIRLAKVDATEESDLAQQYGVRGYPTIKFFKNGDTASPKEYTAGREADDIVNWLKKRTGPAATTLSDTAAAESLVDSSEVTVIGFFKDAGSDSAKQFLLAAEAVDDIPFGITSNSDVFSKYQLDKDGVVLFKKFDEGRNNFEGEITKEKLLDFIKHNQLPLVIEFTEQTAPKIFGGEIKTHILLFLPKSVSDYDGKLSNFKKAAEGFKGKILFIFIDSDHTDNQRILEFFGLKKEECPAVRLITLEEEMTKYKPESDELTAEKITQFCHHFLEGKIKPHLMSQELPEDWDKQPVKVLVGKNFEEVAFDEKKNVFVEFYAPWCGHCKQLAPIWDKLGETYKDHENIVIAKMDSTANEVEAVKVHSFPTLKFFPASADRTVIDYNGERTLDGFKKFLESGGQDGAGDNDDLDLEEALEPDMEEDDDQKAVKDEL

[9] = test system: cardiac dysfunction, hypertrophy, fibrosis; test: Thoracic aortic banding (TAC) or chronic hypertension (HF) model; type: in vivo, mice
Excerpt: (§2) Mice lacking LDL receptors (LDLR −/−) were similarly maintained on a high fat/sucrose Western diet and treated with SC-26196 in a similar manner as described above. As summarized in FIG. 5, SC-26196 treatment ameliorated hyperlipidemia and atherosclerosis in mice lacking LDL receptors fed the Western diet. The treatment also attenuated cardiac dysfunction, pathologic hypertrophy and fibrosis in mice subjected to thoracic aortic banding (TAC) or chronic hypertension (HF), as summarized in FIG. 6.

[10] = test system: LDLR -/- mice; test: LDL receptor-lacking mice on Western diet; type: in vivo
Excerpt: as §2

[11] = test system: leptin-deficient ob mice; test: ob/ob mice (hyperphagic obesity) on normal diet treated 4 weeks; type: in vivo
Procedure: as §1
Initially, the effects of D6D inhibition in conjunction with a normal diet were assessed. 4 mo old ob/ob mice were administered the selective D6D inhibitor SC-26196 (100 mg/kg/d mixed in chow) for 4 weeks (ob/ob+D6D−; n=12). The ob mice treated with SC-26196 for four weeks (ob+SC) were compared to untreated ob mice (ob) and normal C57BI/6 mice (BI/6). FIGS. 3A-C summarizes the results of this comparison. […] As summarized in FIG. 7, treatment with SC-26196 normalized responses to a glucose tolerance test, decreased serum insulin, and reduced hepatic macrophage (MΦ) content and ser-307 phosphorylation of IRS-1, the canonical cellular mechanism of hepatic insulin resistance resulting from inflammatory signaling. As summarized in FIGS. 8A and 8B, treatment with SC-26196 reduced the hepatic PC/PE ratio in the treated ob mice. FIG. 9 illustrates that SC-26196 treatment normalized the cardiac phospholipid/cardiolipin composition in the treated ob mice.

[12] = 100 mpk/d mixed in mouse chow, 4 weeks
[13] = ob mice, normal diet, 100 mg/kg/d
[14] = ob/ob mice, cardiac, 100 mg/kg/d, vs lean C57BI/6

N#CC(CCCN1CCN(/N=C/c2cccnc2)CC1)(c1ccccc1)c1ccccc1 [SC-26196, (E)-2,2-Diphenyl-5-{4-[(pyridin-3-yl-methylene)amino]piperazin-1-yl}pentanenitrile]
MTP activity [1]: inhibited MTP activity | selectivity for D6D over other desaturase enzymes [2]: potent selectivity | IC50 ([2]; in vitro): 200 nM | inhibition of D6D enzymatic activity in vivo ([3]; 100 mg/kg b.i.d., i.g. over a 24 hr period): about 65% | oral activity ([3]; at 100 mpk): oral activity | effect in a model of acute inflammation [4, 12]: protective effects | tissue AA/LA ratios [4, 12]: reduced | reversing elevations of tissue AA/LA associated with acute inflammation ([4]; lower doses, 50 and 75 mpk/d, 4 wks): ineffective | fasting blood glucose [5]: reduced | responses to a glucose tolerance test [5]: normalized | serum insulin levels [5]: normalized 8-fold elevations | hepatomegaly [6]: significant hepatomegaly | Peak plasma levels ([7]; 100 mpk ig dosing): 2 µM | half-life ([7]; 100 mpk ig dosing): 1.2 h | bioavailability ([7]; 100 mpk ig, based on AUC calculations): about 60% | MTP activity [8]: inhibited MTP activity | cardiac dysfunction [9]: attenuated | fibrosis [9]: attenuated | pathologic hypertrophy [9]: attenuated | atherosclerosis [10]: ameliorated | hyperlipidemia [10]: ameliorated | ser-307 phosphorylation of IRS-1 ([11]; ob mice, liver, normal diet, 100 mg/kg/d): reduced | cardiac oxidative stress [11, 13]: reduced | cardiac phospholipid/cardiolipin composition [11, 13]: normalized | eicosanoid species in heart tissue [11, 13]: abolished significant increases | eicosanoid species in serum [11, 13]: abolished significant increases | hepatic PC/PE ratio [11, 13]: reduced | hepatic macrophage content [11, 13]: reduced | responses to a glucose tolerance test [11, 13]: normalized | serum insulin [11, 13]: decreased | phospholipid AA/LA ratio of serum, liver, heart and muscle tissue ([11]; ob mice, normal diet, 100 mg/kg/d in chow): reversed significant elevations | cardiac cardiolipin profile ([11]; ob/ob mice, 100 mg/kg/d in chow, vs lean C57BI/6): to levels similar to those in lean age-matched control mice | membrane peroxidizability index [11, 14]: to levels similar to those in lean age-matched control mice | phospholipid D6D activity index (20:4/18:2 ratio) [11, 14]: to levels similar to those in lean age-matched control mice | phospholipid DHA content [11, 14]: to levels similar to those in lean age-matched control mice

Source: US8952012B2, “Inhibition of delta-6 desaturase for the treatment of cardiometabolic disease” (Colorado State University Research Foundation, priority 2012, dated 2015)
